Here are results for 51 compounds from patent US7776862B2, “Pyridyl and phenyl substituted piperazine-piperidines with CXCR3 antagonist activity” (Schering Corporation, priority 2005, dated 2010).

This experiment concerns the target T1, human CXCR3 (N-delta 4) (Homo sapiens, UniProt P49682).
T1 construct: CD8 leader; Flag tag; expressed in transfected cells; membranes used
T1 sequence (P49682 5-368 limits assumed): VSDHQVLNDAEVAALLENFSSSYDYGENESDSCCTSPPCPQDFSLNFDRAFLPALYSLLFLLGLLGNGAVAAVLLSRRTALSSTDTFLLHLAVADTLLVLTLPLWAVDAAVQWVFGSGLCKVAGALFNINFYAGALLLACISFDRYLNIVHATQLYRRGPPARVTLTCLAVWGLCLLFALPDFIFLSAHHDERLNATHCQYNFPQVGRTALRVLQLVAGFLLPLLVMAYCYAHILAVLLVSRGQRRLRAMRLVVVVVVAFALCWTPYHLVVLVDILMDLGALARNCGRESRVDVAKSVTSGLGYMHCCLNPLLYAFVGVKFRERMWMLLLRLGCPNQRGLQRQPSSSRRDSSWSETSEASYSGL
The experiment is described as follows: Human CXCR3 (N-delta 4) scintillation proximity assay (SPA), [125I] IP-10 binding. The following applies: IC50 rating; Ba/F3-hCXCR3 (N-delta 4) membranes, 25 pM [125I] IP-10. From the text:
The inventive compounds can readily be evaluated to determine activity at the CXCR3 receptors by known methods, such as, for example, development of a human CXCR3 (N-delta 4) Binding Assay.
Cloning and expression of human CXCR3 (N-delta 4):
The DNA encoding human CXCR3 was cloned by PCR using human genomic DNA (Promega, Madison, Wis.) as a template. The PCR primers were designed based on the published sequence of human orphan receptor GPR9 (1) with incorporated restriction sites, a Kozak consensus sequence, CD8 leader and Flag tag. The PCR product was subcloned into the mammalian expression vector pME18Sneo, a derivative of the SR-alpha expression vector (designated as pME18Sneo-hCXCR3 (N-delta 4).
IL-3-dependent mouse pro-B cells Ba/F3 were transfected by electroporation in 0.4 ml Dulbecco's PBS containing 4×10^6 cells with 20 μg of pME18Sneo-hCXCR3 (N-delta 4) plasmid DNA. Cells were pulsed at 400 Volts, 100 OHMs, 960 μFd. The transfected cells were under selection with 1 mg/ml G418 (Life Technologies, Gaithersburg, Md.). […] IP-10 (NEN Life Science Products, Boston, Mass.).
Preparation of Ba/F3-hCXCR3 (N-delta 4) membranes:
Ba/F3 cells expressing human CXCR3 (N-delta 4) were pelleted and resuspended in the lysis buffer containing 10 mM HEPES, pH 7.5 and Complete® protease inhibitors (1 tablet per 100 ml) (Boehringer Mannheim, Indianapolis, Ind.) at a cell density of 20×10^6 cells per ml. […] Large cellular debris was removed by centrifugation at 1,000×g. Cell membrane in the supernatant was sedimented at 100,000×g. The membrane was resuspended in the lysis buffer supplemented with 10% sucrose and stored at −80° C. Total protein concentration of the membrane was determined by BCA method from Pierce (Rockford, Ill.).
Human CXCR3 (N-delta 4) scintillation proximity assay (SPA):
The beads were spun down, washed once, resuspended in the binding buffer and transferred to a 96-well Isoplate (Wallac, Gaithersburg, Md.). […] IP-10 with tested compounds in a series of titration were added to start the reaction.
Background: SPA uses beads or plates that emit light when radiolabelled molecules are held near them.

SMILES strings stand for the structures. Bounds are passed on as bounds.

A word on the IC50: it is the concentration that inhibits the measured activity by half. Read a low IC50 as greater potency in that assay. Compound `O=C(NCc1cccc(F)c1)c1cnc(N2CCN(C3CCN(Cc4ccc(F)cc4F)CC3)CC2)c(Cl)c1` [compound 8] yielded a concentration for half-maximal inhibition (IC50) greater than 0.1 µM.
The value for `CC[C@H]1CN(c2ncc(C(N)=O)cc2Cl)CCN1C1CCN(Cc2ccc(Cl)cc2F)CC1` [compound 244] was less than 0.025 µM.
The value for `C[C@H]1CN(c2ncc(C(=N)N)cc2Cl)CCN1C1CCN(Cc2ccc(Cl)cc2)CC1` [compound 429] was 0.025 to 0.1 µM; that for `O=C(NCCOc1ccccc1)c1cnc(N2CCN(C3CCN(Cc4ccc(Cl)cc4Cl)CC3)CC2)c(Cl)c1` [compound 38] was greater than 0.1 µM.
The value for `O=C(NCc1cccnc1)c1cnc(N2CCN(C3CCN(Cc4ccc(Cl)cc4)CC3)CC2)c(Cl)c1` [compound 358] was greater than 0.1 µM.
`O=C(NCC1CCCCC1)c1cnc(N2CCN(C3CCN(Cc4ccc(Cl)cc4)CC3)CC2)c(Cl)c1` [compound 184] showed a 50% inhibitory concentration (IC50) of 0.025 to 0.1 µM.
As for `CC[C@H]1CN(c2ncc(C(=O)N=C(N)N)cc2Cl)CCN1C1CCN(Cc2ccc(Br)cc2F)CC1` [compound 350], the IC50 was greater than 0.1 µM.
The value for `C[C@@H]1CN(c2ncc(C(=O)NCC3CCCCC3)cc2Cl)CCN1C1CCN(C(=O)c2ccc(C#N)cc2)CC1` [compound 250] was less than 0.025 µM; that for `Cc1cc(NC(=O)c2cnc(N3CCN(C4CCN(Cc5ccc(Cl)cc5)CC4)[C@@H](C)C3)c(Cl)c2)no1` [compound 310] was 0.025 to 0.1 µM; that for `N#Cc1ccc(CN2CCC(N3CCN(c4ncc(C(=O)NCCOc5ccccc5)cc4Br)CC3)CC2)cc1` [compound 314] was 0.025 to 0.1 µM.
`O=C(NCc1ccc(F)cc1F)c1cnc(N2CCN(C3CCN(Cc4ccc(F)c(F)c4)CC3)CC2)c(Cl)c1` [compound 132]: the half-maximal inhibitory concentration (IC50) lay in the range of 0.025 to 0.1 µM.
The value for `CC[C@H]1CN(c2ncc(CNc3c(NC4CC4)c(=O)c3=O)cc2Cl)CCN1C1CCN(Cc2ccc(Br)cc2F)CC1` [compound 412] was 0.025 to 0.1 µM; that for `C[C@@H]1CN(c2ncc(C(=O)NCc3ccc(Cl)c(Cl)c3)cc2Cl)CCN1C1CCN(Cc2ccc(Cl)cc2)CC1` [compound 264] was less than 0.025 µM.
The value for `CC[C@H]1CN(c2ncc(C(=O)NC3CC3)cc2Cl)CCN1C1CCN(Cc2ccc(Cl)cc2F)CC1` [compound 215] was less than 0.025 µM.
The value for `O=C(NC1CCCC1)c1cnc(N2CCN(C3CCN(Cc4ccc(Cl)cc4)CC3)CC2)c(Cl)c1` [compound 168] was greater than 0.1 µM; that for `Cc1ccc(CN2CCC(N3CCN(c4ncc(C(=O)NCc5ccc(Cl)c(Cl)c5)cc4Cl)CC3)CC2)cc1` [compound 183] was greater than 0.1 µM.
For the compound `CC(C)C[C@H]1CN(c2ncc(C(=O)NC(C)C)cc2Cl)CCN1C1CCN(Cc2ccc(Cl)cc2)CC1` [compound 196], the 50% inhibitory concentration (IC50) is greater than 0.1 µM.
The value for `O=C(NCc1ccc(Cl)cc1F)c1cnc(N2CCN(C3CCN(Cc4ccc(Cl)cc4)CC3)CC2)c(Cl)c1` [compound 125] was 0.025 to 0.1 µM; that for `CCOC(=N)c1cnc(N2CCN(C3CCN(Cc4ccc(Cl)cc4F)CC3)[C@@H](CC)C2)c(Cl)c1` [compound 415] was 0.025 to 0.1 µM; that for `O=C(NCc1ccccc1)c1cnc(N2CCN(C3CCN(Cc4ccc(Br)cc4)CC3)CC2)c(Cl)c1` [compound 39] was greater than 0.1 µM.
The value for `O=C(NCc1ccc(Cl)cc1)c1cnc(N2CCN(C3CCN(Cc4ccc(F)cc4)CC3)CC2)c(Cl)c1` [compound 151] was 0.025 to 0.1 µM.
In turn, `N#Cc1ccc(CN2CCC(N3CCN(c4ncc(C(=O)NCc5ccc(Cl)cc5F)cc4Cl)CC3)CC2)cc1` [compound 120] returned a concentration for half-maximal inhibition (IC50) of 0.025 to 0.1 µM.
For the compound `CCNC(=O)c1cnc(N2CCN(C3(CC)CCN(Cc4ccc(Cl)cc4)CC3)CC2)c(Cl)c1` [compound 208], the IC50 is greater than 0.1 µM.
The compound `O=C(NCc1ccc(Cl)cc1Cl)c1cnc(N2CCN(C3CCN(Cc4ccc(Cl)cc4)CC3)CC2)c(Cl)c1` [compound 149] gave an IC50 of 0.025 to 0.1 µM.
The value for `O=C(NCc1ccc(F)c(F)c1)c1cnc(N2CCN(C3CCN(Cc4ccc(F)cc4F)CC3)CC2)c(Cl)c1` [compound 96] was 0.025 to 0.1 µM; that for `O=C(NCCOc1ccccc1)c1cnc(N2CCN(C3CCN(Cc4ccc(Cl)cc4)CC3)CC2)c(Cl)c1` [compound 323] was 0.025 to 0.1 µM.
The value for `CC[C@H]1CN(c2ncc(CNS(C)(=O)=O)cc2Cl)CCN1C1CCN(Cc2ccc(Cl)cc2F)CC1` [compound 380] was less than 0.025 µM.
The value for `CC[C@H]1CN(c2ncc(C(=O)c3ncco3)cc2Cl)CCN1C1CCN(Cc2ccc(Cl)cc2F)CC1` [compound 428] was 0.025 to 0.1 µM; that for `O=C(NCc1ccc(F)c(F)c1)c1cnc(N2CCN(C3CCN(CCOc4ccc(F)cc4)CC3)CC2)c(Cl)c1` [compound 346] was greater than 0.1 µM; that for `CC[C@H]1CN(c2ncc(CN(C(=O)N(C)C)C3CC3)cc2Cl)CCN1C1CCN(Cc2ccc(Cl)cc2F)CC1` [compound 432] was 0.025 to 0.1 µM.
For `CC[C@H]1CN(c2ncc(CNC(N)=O)cc2Cl)CCN1C1CCN(Cc2ccc(Cl)cc2F)CC1` [compound 379], the IC50 is less than 0.025 µM.
The value for `O=C(NCc1ccc(Cl)cc1F)c1cnc(N2CCN(C3CCN(Cc4ccc(F)cc4F)CC3)CC2)c(Cl)c1` [compound 88] was greater than 0.1 µM; that for `O=C(NCc1cccc(F)c1)c1cnc(N2CCN(C3CCN(Cc4ccc(Cl)cc4Cl)CC3)CC2)c(Cl)c1` [compound 1] was greater than 0.1 µM.
The value for `CNC(=O)c1cnc(N2CCN(C3CCN(Cc4cccc(C)c4)CC3)[C@@H](C)C2)c(Cl)c1` [compound 334] was greater than 0.1 µM; that for `CCNC(=O)c1cnc(N2CCN(C3CCN([C@H](C)c4ccc(Cl)cc4)CC3)[C@@H](C)C2)c(Cl)c1` [compound 231] was less than 0.025 µM; that for `O=C(NCCOc1ccccc1)c1cnc(N2CCN(C3CCN(Cc4ccc(Br)cc4)CC3)CC2)c(Br)c1` [compound 290] was 0.025 to 0.1 µM.
The value for `N#Cc1ccc(C(=O)N2CCC(N3CCN(c4ncc(C(=O)NCc5ccc(F)c(Cl)c5)cc4Cl)CC3)CC2)cc1` [compound 83] was greater than 0.1 µM.
In the case of `CNC(=O)c1cnc(N2CCN(C3CCN(Cc4ccc(C)cc4)CC3)[C@@H](C)C2)c(Cl)c1` [compound 320], the IC50 lay within 0.025 to 0.1 µM.
The value for `O=C(NCc1ccc(Cl)cc1F)c1cnc(N2CCN(C3CCN(Cc4ccc(F)cc4)CC3)CC2)c(Cl)c1` [compound 134] was 0.025 to 0.1 µM; that for `O=C(NCc1ccc(Br)cc1)c1cnc(N2CCN(C3CCN(Cc4ccc([N+](=O)[O-])cc4)CC3)CC2)c(Cl)c1` [compound 131] was 0.025 to 0.1 µM.
The value for `CC[C@H]1CN(c2ncc(C(=O)OC)cc2Cl)CCN1C1CCN(C(=O)c2ccc(Br)cc2)CC1` [compound 454] was greater than 0.1 µM; that for `CCNC(=O)OC(C)c1cnc(N2CCN(C3CCN(Cc4ccc(Cl)cc4F)CC3)[C@@H](CC)C2)c(Cl)c1` (stereo partly drawn) [compound 434] was greater than 0.1 µM; that for `O=C(NC1CCCC1)c1cnc(N2CCN(C3CCN(Cc4ccc(Cl)cc4)CC3)CC2)c(Br)c1` [compound 189] was greater than 0.1 µM.
The value for `CC[C@H]1CN(c2ncc(CNC(=O)N(C(=O)NC3CC3)C3CC3)cc2Cl)CCN1C1CCN(Cc2ccc(Br)cc2F)CC1` [compound 408] was less than 0.025 µM; that for `CC1CN(C2CCN(Cc3ccc(Cl)cc3)CC2)CCN1c1ncc(C(=O)NCc2ccc(Cl)c(Cl)c2)cc1Cl` (stereo not drawn) [compound 122] was 0.025 to 0.1 µM.
In the case of `CC[C@H]1CN(c2ncc(CNC(=O)Nc3ccc(F)c(F)c3)cc2Cl)CCN1C1CCN(Cc2ccc(Cl)cc2)CC1` [compound 400], the 50% inhibitory concentration (IC50) is less than 0.025 µM.
The value for `O=C(NCc1cccc(F)c1)c1cnc(N2CCN(C3CCN(Cc4ccc(F)c(F)c4)CC3)CC2)c(Cl)c1` [compound 91] was greater than 0.1 µM.
The value for `CCNC(=O)N(Cc1cnc(N2CCN(C3CCN(Cc4ccc(Cl)cc4F)CC3)[C@@H](CC)C2)c(Cl)c1)C1CC1` [compound 423] was 0.025 to 0.1 µM.
The value for `N#Cc1ccc(CN2CCC(N3CCN(c4ncc(C(=O)NCc5ccc(Cl)cc5)cc4Cl)CC3)CC2)cc1` [compound 126] was 0.025 to 0.1 µM.
Consider `CCC(=O)c1cnc(N2CCN(C3CCN(Cc4ccc(Cl)cc4F)CC3)[C@@H](CC)C2)c(Cl)c1` [compound 411], for which the 50% inhibitory concentration (IC50) fell in the range of 0.025 to 0.1 µM.
Regarding `CC(NC(=O)c1cnc(N2CCN(C3CCN(Cc4ccc(Cl)cc4)CC3)CC2)c(Cl)c1)c1ccccc1` (stereo not drawn) [compound 104], the half-inhibitory concentration (IC50) was in the range of 0.025 to 0.1 µM.
